Among the data in US9956222B2, “Quinazoline derivative as tyrosine-kinase inhibitor, preparation method therefor and application thereof” (Xuanzhu Pharma Co., Ltd., priority 2011, dated 2018) are IC50 values, retold here.

For test [1], the system named is SKOV3 cells (Ovarian carcinoma). The experiment in a line: In vitro cellular inhibitory activity, XTT method. Type of test: cell-based. The conditions noted are these: Homo sapiens, SK-OV-3, 72 hours, read-out: in vitro cellular inhibitory activities on SKOV3 IC50. The method, then: (§1) In vitro cellular inhibitory activity of the present compounds
(§2) 1. Formulating the agents and the compounds
(§3) 2) Formulating the XTT working liquor: […]
(§4) The mixture was filtered, packaged separately, and used immediately or within one week. It is necessary for all of the processes to be kept in darkness.
(§5) 3) Formulating test compounds
(§6) Formulating a stock solution of test compound: […]
(§7) The compound powder was dissolved into DMSO until a concentration of 10 mM reached.
(§8) Formulating gradient dilute solutions of test compound: […]
(§9) First, the 10 mM stock solution of test compound was diluted with DMSO in a 4-fold successive gradient for 10 concentrations. 2 μL DMSO-diluted compound was added to 998 μL of the culture medium containing 10% FBS. Therefore, the maximum concentration of the compound is 20 μM, the concentration of DMSO is 0.2%, and there are 10 concentration gradients in total.
(§10) 1) Preparing the cell suspension
(§11) The culture medium was removed from the culture bottle. The cells were rinsed twice with PBS. The pancreatic enzyme was added to digest cells. The digested cells were collected by centrifuge. The cells were resuspended with a culture medium containing 10% fetal calf serum, counted and adjusted to an appropriate concentration (the cell viability should be over 90%). The cell concentration was 5×10^4/ml.
(§12) 2) The cell suspension was added to the 96-well plate, 100 μL per well.
(§13) 3) The plate was placed in the incubator and incubated at 37° C. under 5% CO2 overnight.
(§14) Drugs were added to the cell culture plate. The plate was placed in the incubator and incubated at 37° C. under 5% CO2 for 72 hours.
(§15) 5. Testing the cell viability with the XTT method
(§16) The XTT working solution was added to the plate. The plate was placed in the incubator and incubated at 37° C. under 5% CO2 for 2 hr. Then the plate was placed in a microplate reader to read the absorbance at 450 nm.
(§17) 2) Data were input into GraphPad Prism 5.0 to plot a curve and obtain IC50.
In general terms: Formazan colour is commonly taken as a measure of viable cells.

Test [2] has as its target T1, EGFR: human epidermal growth factor receptor (Homo sapiens, UniProt P00533).
T1 construct: purchased Carna
The test can be described thus: In vitro enzyme inhibitory activity (Caliper, FAM labeled peptide). Format: biochemical. The conditions noted are these: EGFR kinase, 28° C., 1 h. The protocol: (§18) In vitro enzyme inhibitory activity of the present compounds
EGFR: human epidermal growth factor receptor (Carna);
(§19) 1. Formulating the agents to be used in the assay
(§20) (3) Stop buffer (100 mM HEPES, pH 7.5, 0.015% Brij-35, 0.2% Coating Reagent #3, 50 mM EDTA);
(§21) (6) 5-fold compound solutions (using 100% DMSO to formulate 50-fold compound solutions having different concentration gradients, and diluting with water by 10 times to obtain 5-fold compound solutions having different concentration gradients);
(§22) 2. Adding 5 μL of a 5-fold compound solution to a 384-well plate;
(§23) 3. Adding 10 μL of a 2.5-fold kinase solution to incubate for 10 min;
(§24) 4. Then adding 10 μL of a 2.5-fold peptide solution, and reacting at 28° C. for 1 h; and
(§25) 5. Finally, adding 25 μL of stop buffer to terminate the reaction, and reading the data with Caliper.
(§26) 6. Curve fitting to obtain an IC50 value. The calculated inhibition ratio (%)=(the maximum conversion rate−the conversion rate)/(the maximum conversion rate−the minimum conversion rate)×100
(§27) The curve fitting was conducted with the Xlfit software to obtain IC50 values.

The target of test [3] is T2, HER2: human epidermal growth factor receptor 2 (Homo sapiens, UniProt P04626).
T2 construct: purchased Carna
The test is described as above. Type of test: biochemical. The settings on record: HER2 kinase, 28° C., 1 h. The protocol: as §18
HER2: human epidermal growth factor receptor 2 (Carna);
as §19, §20, §21, §22, §23, §24, §25, §26, §27

For test [4], the target named is T3, HER4: human epidermal growth factor receptor 4 (Homo sapiens, UniProt Q15303).
T3 construct: purchased Carna
Described as above. Format: biochemical. The conditions noted are these: HER4 kinase, 28° C., 1 h. The protocol: as §18
HER4: human epidermal growth factor receptor 4 (Carna).
as §19, §20, §21, §22, §23, §24, §25, §26, §27

Test [5] has as its system H1975 Cells (NSCLC, non-small cell lung cancer). The experiment in a line: In vitro cellular inhibitory activity, XTT method. Format: cell-based. The conditions noted are these: Homo sapiens, NCI-H1975, 72 hours, read-out: in vitro cellular inhibitory activities on H1975 IC50. The protocol: as §1, §2, §3, §4, §5, §6, §7, §8, §9, §10, §11, §12, §13, §14, §15, §16, §17

Test [6] has as its system A431 cells (Epidermoid carcinoma). The test can be described thus: In vitro cellular inhibitory activity, XTT method. The conditions noted are these: Homo sapiens, A-431, 72 hours, read-out: in vitro cellular inhibitory activities on A431 IC50. Type of test: cell-based. The method, then: as §1, §2, §3, §4, §5, §6, §7, §8, §9, §10, §11, §12, §13, §14, §15, §16, §17

Molecules are shown by their SMILES.

T2 sequence (P04626 23-1255): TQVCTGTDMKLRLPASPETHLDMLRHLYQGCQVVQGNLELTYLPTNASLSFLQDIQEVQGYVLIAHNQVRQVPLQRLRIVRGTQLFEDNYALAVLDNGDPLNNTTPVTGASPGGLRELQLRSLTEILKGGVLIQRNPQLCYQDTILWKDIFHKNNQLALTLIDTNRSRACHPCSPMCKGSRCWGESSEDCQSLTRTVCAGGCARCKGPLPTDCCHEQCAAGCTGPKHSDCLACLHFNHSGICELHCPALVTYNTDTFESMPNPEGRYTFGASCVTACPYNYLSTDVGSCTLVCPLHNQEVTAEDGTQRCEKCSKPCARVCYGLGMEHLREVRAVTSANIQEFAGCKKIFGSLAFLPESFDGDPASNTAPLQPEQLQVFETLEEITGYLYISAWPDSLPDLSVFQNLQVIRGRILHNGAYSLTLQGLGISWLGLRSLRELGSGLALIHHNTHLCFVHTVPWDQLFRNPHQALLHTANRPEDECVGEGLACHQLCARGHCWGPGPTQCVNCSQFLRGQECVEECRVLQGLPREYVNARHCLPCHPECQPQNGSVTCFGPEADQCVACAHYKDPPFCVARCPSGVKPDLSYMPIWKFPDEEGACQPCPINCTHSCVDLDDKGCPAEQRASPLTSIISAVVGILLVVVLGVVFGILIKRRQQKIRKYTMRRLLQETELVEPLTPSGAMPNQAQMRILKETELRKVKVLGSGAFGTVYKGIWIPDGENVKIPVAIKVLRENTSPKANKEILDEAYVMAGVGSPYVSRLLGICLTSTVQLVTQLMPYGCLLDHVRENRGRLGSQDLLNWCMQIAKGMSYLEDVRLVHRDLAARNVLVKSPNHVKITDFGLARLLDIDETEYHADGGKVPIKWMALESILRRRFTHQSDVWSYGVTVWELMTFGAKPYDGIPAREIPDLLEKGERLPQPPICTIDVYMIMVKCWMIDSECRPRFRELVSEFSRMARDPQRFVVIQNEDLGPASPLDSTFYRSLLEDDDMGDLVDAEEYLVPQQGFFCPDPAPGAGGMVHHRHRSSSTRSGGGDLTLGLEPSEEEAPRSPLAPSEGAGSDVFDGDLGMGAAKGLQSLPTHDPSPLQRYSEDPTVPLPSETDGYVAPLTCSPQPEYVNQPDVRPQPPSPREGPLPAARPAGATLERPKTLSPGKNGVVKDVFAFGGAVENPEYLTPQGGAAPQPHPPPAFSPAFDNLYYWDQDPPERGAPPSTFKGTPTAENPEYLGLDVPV
T1 sequence (P00533 25-1210): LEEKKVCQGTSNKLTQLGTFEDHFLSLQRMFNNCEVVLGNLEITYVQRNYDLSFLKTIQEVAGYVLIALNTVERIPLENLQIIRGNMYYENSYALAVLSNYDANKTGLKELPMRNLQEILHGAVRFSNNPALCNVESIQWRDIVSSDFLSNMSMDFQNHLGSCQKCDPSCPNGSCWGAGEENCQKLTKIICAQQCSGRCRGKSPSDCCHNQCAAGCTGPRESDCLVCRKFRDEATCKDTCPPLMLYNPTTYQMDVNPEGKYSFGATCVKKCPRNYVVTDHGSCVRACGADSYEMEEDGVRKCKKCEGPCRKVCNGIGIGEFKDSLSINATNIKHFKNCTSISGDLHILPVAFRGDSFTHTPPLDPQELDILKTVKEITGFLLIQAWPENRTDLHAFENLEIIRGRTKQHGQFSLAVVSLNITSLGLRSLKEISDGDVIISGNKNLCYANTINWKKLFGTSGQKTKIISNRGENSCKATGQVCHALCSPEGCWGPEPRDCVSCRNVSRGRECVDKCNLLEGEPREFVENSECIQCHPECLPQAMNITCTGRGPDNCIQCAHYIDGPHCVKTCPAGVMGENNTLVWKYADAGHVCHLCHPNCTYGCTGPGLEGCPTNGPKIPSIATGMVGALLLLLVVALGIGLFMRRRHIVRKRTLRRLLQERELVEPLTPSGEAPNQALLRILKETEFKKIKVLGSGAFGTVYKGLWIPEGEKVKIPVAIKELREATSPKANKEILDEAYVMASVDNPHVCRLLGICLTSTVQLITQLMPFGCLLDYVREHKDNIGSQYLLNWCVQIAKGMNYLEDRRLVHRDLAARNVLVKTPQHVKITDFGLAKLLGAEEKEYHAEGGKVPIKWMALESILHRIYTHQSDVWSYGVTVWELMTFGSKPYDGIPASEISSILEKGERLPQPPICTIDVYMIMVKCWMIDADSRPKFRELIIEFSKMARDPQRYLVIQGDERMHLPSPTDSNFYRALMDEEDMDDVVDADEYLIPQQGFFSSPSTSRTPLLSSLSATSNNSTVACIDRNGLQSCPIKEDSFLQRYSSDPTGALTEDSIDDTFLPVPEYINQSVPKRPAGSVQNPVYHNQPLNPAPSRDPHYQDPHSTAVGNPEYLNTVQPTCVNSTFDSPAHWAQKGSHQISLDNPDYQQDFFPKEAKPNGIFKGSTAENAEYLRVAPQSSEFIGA
T3 sequence (Q15303 26-1308): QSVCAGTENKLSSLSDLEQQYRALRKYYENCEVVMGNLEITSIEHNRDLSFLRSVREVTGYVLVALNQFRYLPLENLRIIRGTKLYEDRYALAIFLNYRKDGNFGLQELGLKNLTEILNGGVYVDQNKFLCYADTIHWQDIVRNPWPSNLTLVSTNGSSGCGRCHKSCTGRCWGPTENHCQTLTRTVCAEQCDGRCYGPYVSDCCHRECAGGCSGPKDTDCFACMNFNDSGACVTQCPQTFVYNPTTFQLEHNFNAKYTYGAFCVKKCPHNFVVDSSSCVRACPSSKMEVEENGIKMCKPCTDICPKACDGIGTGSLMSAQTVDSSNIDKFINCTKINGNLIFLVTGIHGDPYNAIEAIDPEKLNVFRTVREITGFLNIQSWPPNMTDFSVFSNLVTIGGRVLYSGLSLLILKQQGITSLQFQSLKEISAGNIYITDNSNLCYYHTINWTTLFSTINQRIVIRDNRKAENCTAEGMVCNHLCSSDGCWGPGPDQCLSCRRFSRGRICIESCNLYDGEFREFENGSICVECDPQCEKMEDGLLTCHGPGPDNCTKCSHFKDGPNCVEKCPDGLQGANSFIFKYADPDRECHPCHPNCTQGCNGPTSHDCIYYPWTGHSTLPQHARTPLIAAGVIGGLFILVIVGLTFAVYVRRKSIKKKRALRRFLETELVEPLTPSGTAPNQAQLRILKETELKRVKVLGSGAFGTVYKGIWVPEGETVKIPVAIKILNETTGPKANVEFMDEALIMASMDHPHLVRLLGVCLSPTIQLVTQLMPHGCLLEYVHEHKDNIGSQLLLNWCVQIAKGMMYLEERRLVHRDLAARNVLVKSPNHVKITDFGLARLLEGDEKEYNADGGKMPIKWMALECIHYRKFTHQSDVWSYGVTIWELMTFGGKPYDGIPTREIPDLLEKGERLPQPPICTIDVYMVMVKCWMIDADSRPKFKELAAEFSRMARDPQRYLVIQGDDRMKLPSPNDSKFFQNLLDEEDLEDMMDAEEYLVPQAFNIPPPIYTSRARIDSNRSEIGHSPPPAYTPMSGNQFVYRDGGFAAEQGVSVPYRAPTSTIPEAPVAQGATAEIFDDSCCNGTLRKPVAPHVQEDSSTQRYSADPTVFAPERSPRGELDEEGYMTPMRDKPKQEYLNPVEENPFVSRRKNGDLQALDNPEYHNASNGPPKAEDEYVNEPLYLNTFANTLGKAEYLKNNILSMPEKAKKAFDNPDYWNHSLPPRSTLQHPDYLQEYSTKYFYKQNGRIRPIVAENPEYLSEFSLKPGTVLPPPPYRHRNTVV

Broadly, the IC50 is the concentration at which inhibition is half-maximal. Regarding `COc1cc2ncnc(Nc3ccc(F)c(Cl)c3)c2cc1NC(=O)/C=C/CN1CCC2(CCC2)CC1` [Compound 17, (E)-N-[4-(3-chloro-4-fluorophenylamino)-7-methoxyquinazolin-6-yl]-4-(7-azaspiro[3.5]nonan-7-yl)-2-butenamide], in test [1], the IC50 is 3.06 µM.
On to `COc1cc2ncnc(Nc3ccc(F)c(Cl)c3)c2cc1NC(=O)/C=C/CN1CC2CC2C1` (stereo not drawn) [Compound 1, (E)-4-[3-azabicyclo[3.1.0]hexan-3-yl]-N-[4-(3-chloro-4-fluorophenylamino)-7-methoxyquinazolin-6-yl]-2-butenamide], for which the IC50 worked out at 0.00055 µM in test [2], 0.014 µM in test [3] and 0.0031 µM in test [4].
For `COc1cc2ncnc(Nc3ccc(F)c(Cl)c3)c2cc1NC(=O)/C=C/CN1CCC2(CC2)C1` [Compound 26, (E)-N-[4-(3-chloro-4-fluorophenylamino)-7-methoxyquinazolin-6-yl]-4-(5-azaspiro[2.4]heptan-5-yl)-2-butenamide], the results for the IC50 in test [5] and in test [1] were 0.0856 µM and 3.07 µM, respectively.
The matching figures for `COc1cc2ncnc(Nc3ccc(F)c(Cl)c3)c2cc1NC(=O)/C=C/CN1CC2(CCCC2)C1` [Compound 14, (E)-N-[4-(3-chloro-4-fluorophenylamino)-7-methoxyquinazolin-6-yl]-4-(2-azaspiro[3.4]octan-2-yl)-2-butenamide]: 0.134 µM and 3.71 µM.
The like results for `COc1cc2ncnc(Nc3ccc(F)c(Cl)c3)c2cc1NC(=O)/C=C/CN1CCC2(CCC2)C1` [Compound 27, (E)-N-[4-(3-chloro-4-fluorophenylamino)-7-methoxyquinazolin-6-yl]-4-[6-azaspiro[3.4]octan-6-yl]-2-butenamide] were, in that order, 0.0919 µM and 3.19 µM.
For the compound `COc1cc2ncnc(Nc3ccc(F)c(Cl)c3)c2cc1NC(=O)/C=C/CN1CCC2(CC1)COC2` [Compound 29, (E)-N-[4-(3-chloro-4-fluorophenylamino)-7-methoxyquinazolin-6-yl]-4-(2-oxa-7-azaspiro[3.5]nonan-7-yl)-2-butenamide], in test [5], the IC50 amounted to 0.0571 µM.
As to `COc1cc2ncnc(Nc3ccc(F)c(Cl)c3)c2cc1NC(=O)/C=C/CN1CCCC2(COC2)C1` [Compound 28, (E)-N-[4-(3-chloro-4-fluorophenylamino)-7-methoxyquinazolin-6-yl]-4-[2-oxa-6-azaspiro[3.5]nonan-6-yl]-2-butenamide], the IC50 in test [5] was found to be 0.039 µM.
Turning to `COc1cc2ncnc(Nc3ccc(F)c(Cl)c3)c2cc1NC(=O)/C=C/CN1CCC2(CC1)CC2` [Compound 30, (E)-N-[4-(3-chloro-4-fluorophenylamino)-7-methoxyquinazolin-6-yl]-4-(6-azaspiro[2.5]octan-6-yl)-2-butenamide], the IC50 in test [1] worked out at 3.35 µM.
For `COc1cc2ncnc(Nc3ccc(F)c(Cl)c3)c2cc1NC(=O)/C=C/CN1CCCCC1` [PF-00299804, reference compound], the IC50 in test [6] was determined as 0.548 µM; in test [5], 0.356 µM; in test [1], 3.96 µM.
`COc1cc2ncnc(Nc3ccc(F)c(Cl)c3)c2cc1NC(=O)/C=C/CN1CC2(CCCCC2)C1` [Compound 15, (E)-N-[4-(3-chloro-4-fluorophenylamino)-7-methoxyquinazolin-6-yl]-4-(2-azaspiro[3.5]nonan-2-yl)-2-butenamide]: the IC50 in test [5] stood at 0.179 µM; in test [1], 3.65 µM.
Take `COc1cc2ncnc(Nc3ccc(F)c(Cl)c3)c2cc1NC(=O)/C=C/CN1CC2(CCC2)C1` [Compound 2]: the IC50 in test [2] stood at 0.00065 µM; in test [3], 0.019 µM; in test [4], 0.0089 µM; in test [6], 0.0333 µM; in test [5], 0.148 µM; in test [1], 3.22 µM.
